Reference: patent publication US20240150351A1, “BICYCLIC COMPOUNDS” (Aligos Therapeutics, Inc., priority 2022, published 2024)
Structures can show the parent of a compound that is named as a salt.

Legend:
[1] = system: HBV; assay: HBV-DNA antiviral assay using HepG2.117 cells (intracellular HBV DNA by qPCR); format: cell-based, genotype D HBV; settings: 3 days incubation, HBV DNA inhibition
Protocol: (§1) The following assay procedure describes the HBV antiviral assay, using HepG2.117 cells, which carry a stably integrated genotype D HBV genome under the control of a Tet-off promoter, and intracellular HBV DNA quantification as endpoint. Cell viability is assessed in parallel by measuring the intracellular ATP content using CellTiter-Glo 2.0 (Promega).
On day 0, HepG2.117 cells (which are maintained in routine cell culture with doxycycline present in the medium at a final concentration of 1 μg/mL) are seeded in 96-well plates (white with clear bottom) at a density of 2.0×10^4 cells/well (0.1 mL/well) in medium without doxycycline to induce pgRNA transcription and subsequent formation of HBV particles. The cells are incubated at 37° C. and 5% CO2.
(§2) On day 1, medium is removed from each well, the test articles are diluted in culture medium without doxcycyline and 100 μL was added to cell culture wells (9 concentrations, 4-fold dilution). For each plate, 6 untreated (merely DMSO) wells are included. The final concentration of DMSO in the culture medium is 2%. Each plate is prepared in duplicate (one for HBV DNA extraction, one for CellTiter-Glo 2.0 measurement). The cells are incubated at 37° C. and 5% CO2 for 3 days.
(§3) On day 4, cell viability is assessed using CellTiter-Glo 2.0 and cell lysates are prepared for HBV DNA extraction and subsequent quantification by qPCR.
HBV DNA Quantification by qPCR
Medium is removed from each well and 100 μL of 0.33% NP-40 in H2O was added to each well. Plates are sealed, incubated at 4° C. for 5 mins, vortexed extensively and centrifuged briefly. Next, 35 μL of lysate is added to 65 μL QuickExtract DNA Extraction Solution (Epicentre) in a PCR plate for each well. PCR plate is incubated at 65° C. for 6 mins, 98° C. for 2 mins and finally cooled to 4° C. HBV DNA is then quantified by qPCR with HBV-specific primers and probes as specified in Table 2 using the Bio-Rad SSOAdvanced Universal Probes Supermix on a CFX96 machine (Bio-Rad). The PCR cycle program consisted of 95° C. for 3 mins, followed by 40 cycles at 95° C. for 10 sec and 60° C. for 30 sec.
A DNA standard is prepared by dilution of an IDT gBlock corresponding to the amplicon with concentrations ranging from 10^2 to 10^8 copies/input (i.e., per 4 μL) and used to generate a standard curve by plotting Cq values vs. HBV DNA standard concentration. The quantity of HBV DNA in each sample is determined by interpolating from the standard curve.
(§4) Cell viability is calculated as follows: % Cell viability=(luminescence value of test sample)/(average luminescence value of 2% DMSO control)×100%. HBV DNA inhibition was calculated as follows: 100−(HBV DNA copy number of test sample)/(average HBV DNA copy number of 2% DMSO control)×100%. No normalization to entecavir is required due to the excellent dynamic window of this assay. The CC50, EC50 and EC90 values were determined by dose-response curves fitted using non-linear regression.

[2] = Cell viability by CellTiter-Glo 2.0 (intracellular ATP content); format: cell-based; settings: human, HepG2.117 cells, 3 days incubation
Protocol: as §1, §2, §3
(§5) Using the other plates, the cell viability is quantified by CellTiter-Glo 2.0 according to the manufacturer's manual. In brief, 100 μL of reagent solution is added to the culture plates and shaken for 2′. The plates are incubated at rt for 10 min and luminescence signal is subsequently measured on a VarioSkan Lux (ThermoFisher) plate reader.
as §4

[3] = system: HepG2.117 cells; assay: as above; format: cell-based; settings: 3 days incubation
Protocol: as §1, §2, §3, §5, §4

Structure (SMILES)	EC50 ([1]; Hepatitis B virus, 72 h)	CC50 at 3 days [2]	EC50 [1]	CC50 [3]
C=C[C@H](C)Nc1nc2c(c(=O)n1-c1ccc(C(=O)N(C)C(=O)OCOC(=O)C[C@H](O)C(=O)O)cc1)C[C@@H](C)N(C(=O)c1ccc(Br)c(C(F)(F)F)c1)C2 [Compound 9, (S)-4-((((4-((R)-7-(4-bromo-3-(trifluoromethyl)benzoyl)-2-(((S)-but-3-en-2-yl)amino)-6-methyl-4-oxo-5,6,7,8-tetrahydropyrido[3,4-d]pyrimidin-3(4H)-yl)benzoyl)(methyl)carbamoyl)oxy)methoxy)-2-hydroxy-4-oxobutanoic acid]	≤ 0.05 µM	> 50 µM	–	–
C=C[C@H](C)Nc1nc2c(c(=O)n1-c1ccc(C(=O)N(C)C(=O)OCOC(=O)/C=C/C(=O)O)cc1)C[C@@H](C)N(C(=O)c1ccc(Br)c(C(F)(F)F)c1)C2 [Compound 3, (E)-4-((((4-((R)-7-(4-bromo-3-(trifluoromethyl)benzoyl)-2-(((S)-but-3-en-2-yl)amino)-6-methyl-4-oxo-5,6,7,8-tetrahydropyrido[3,4-d]pyrimidin-3(41H)-yl)benzoyl)(methyl)carbamoyl)oxy)methoxy)-4-oxobut-2-enoic acid]	≤ 0.05 µM	> 50 µM	–	–
C=C[C@H](C)Nc1nc2c(c(=O)n1-c1ccc(C(=O)N(C)C(=O)OCOP(=O)(O)O)cc1)C[C@@H](C)N(C(=O)c1ccc(Br)c(C(F)(F)F)c1)C2 [Compound 2, (phosphonooxy)methyl (4-((R)-7-(4-bromo-3-(trifluoromethyl)benzoyl)-2-(((S)-but-3-en-2-yl)amino)-6-methyl-4-oxo-5,6,7,8-tetrahydropyrido[3,4-d]pyrimidin-3(4H)-yl)benzoyl)(methyl)carbamate]	≤ 0.05 µM	> 50 µM	–	–
C=C[C@H](C)Nc1nc2c(c(=O)n1-c1ccc(C(=O)N(C)C(=O)O[C@@H](C)OC(=O)[C@@H](N)C(C)C)cc1)C[C@@H](C)N(C(=O)c1ccc(Br)c(C(F)(F)F)c1)C2 (relative stereo) [Compound 6, (*S)-1-(((4-((R)-7-(4-bromo-3-(trifluoromethyl)benzoyl)-2-(((S)-but-3-en-2-yl)amino)-6-methyl-4-oxo-5,6,7,8-tetrahydropyrido[3,4-d]pyrimidin-3(4H)-yl)benzoyl)(methyl)carbamoyl)oxy)ethyl L-valinate hydrochloride]	–	–	≤ 0.05 µM	> 50 µM
C=C[C@H](C)Nc1nc2c(c(=O)n1-c1ccc(C(=O)N(C)C(=O)OCOC(=O)[C@@H](N)C(C)C)cc1)C[C@@H](C)N(C(=O)c1ccc(Br)c(C(F)(F)F)c1)C2 [Compound 4, (((4-((R)-7-(4-bromo-3-(trifluoromethyl)benzoyl)-2-(((S)-but-3-en-2-yl)amino)-6-methyl-4-oxo-5,6,7,8-tetrahydropyrido[3,4-d]pyrimidin-3(4H)-yl)benzoyl)(methyl)carbamoyl)oxy)methyl L-valinate hydrochloride]	≤ 0.05 µM	> 50 µM	–	–
C=C[C@H](C)Nc1nc2c(c(=O)n1-c1ccc(C(=O)N(C)C(=O)OCOC(=O)[C@H](N)C(C)C)cc1)C[C@@H](C)N(C(=O)c1ccc(Br)c(C(F)(F)F)c1)C2 [Compound 5, (((4-((R)-7-(4-bromo-3-(trifluoromethyl)benzoyl)-2-(((S)-but-3-en-2-yl)amino)-6-methyl-4-oxo-5,6,7,8-tetrahydropyrido[3,4-d]pyrimidin-3(4H)-yl)benzoyl)(methyl)carbamoyl)oxy)methyl D-valinate hydrochloride]	≤ 0.05 µM	48.8 µM	–	–
C=C[C@H](C)Nc1nc2c(c(=O)n1-c1ccc(C(=O)N(C)C(=O)O[C@H](C)OC(=O)[C@@H](N)C(C)C)cc1)C[C@@H](C)N(C(=O)c1ccc(Br)c(C(F)(F)F)c1)C2 (relative stereo) [Compound 7, (*R)-1-(((4-((R)-7-(4-bromo-3-(trifluoromethyl)benzoyl)-2-(((S)-but-3-en-2-yl)amino)-6-methyl-4-oxo-5,6,7,8-tetrahydropyrido[3,4-d]pyrimidin-3(4H)-yl)benzoyl)(methyl)carbamoyl)oxy)ethyl L-valinate hydrochloride]	–	–	≤ 0.05 µM	> 50 µM
C=C[C@H](C)Nc1nc2c(c(=O)n1-c1ccc(C(=O)NC)cc1)C[C@@H](C)N(C(=O)c1ccc(Br)c(C(F)(F)F)c1)C2 [Compound 1, 4-((R)-7-(4-bromo-3-(trifluoromethyl)benzoyl)-2-(((S)-but-3-en-2-yl)amino)-6-methyl-4-oxo-5,6,7,8-tetrahydropyrido[3,4-d]pyrimidin-3(4H)-yl)-N-methylbenzamide]	≤ 0.05 µM	46.8 µM	–	–
C=C[C@H](C)Nc1nc2c(c(=O)n1-c1ccc(C(=O)N(C)CO)cc1)C[C@@H](C)N(C(=O)c1ccc(Br)c(C(F)(F)F)c1)C2 [Compound 8, 4-((R)-7-(4-bromo-3-(trifluoromethyl)benzoyl)-2-(((S)-but-3-en-2-yl)amino)-6-methyl-4-oxo-5,6,7,8-tetrahydropyrido[3,4-d]pyrimidin-3(4H)-yl)-N-(hydroxymethyl)-N-methylbenzamide]	≤ 0.05 µM	> 50 µM	–	–
C=C[C@H](C)Nc1nc2c(c(=O)n1-c1ccc(C(=O)N(C)C(=O)O[C@@H](OC(=O)[C@@H](N)C(C)C)C(C)C)cc1)C[C@@H](C)N(C(=O)c1ccc(Br)c(C(F)(F)F)c1)C2 (relative stereo) [Compound 11, (*R)-1-(((4-((R)-7-(4-bromo-3-(trifluoromethyl)benzoyl)-2-(((S)-but-3-en-2-yl)amino)-6-methyl-4-oxo-5,6,7,8-tetrahydropyrido[3,4-d]pyrimidin-3(4H)-yl)benzoyl)(methyl)carbamoyl)oxy)-2-methylpropyl L-valinate hydrochloride]	–	–	≤ 0.05 µM	> 50 µM
C=C[C@H](C)Nc1nc2c(c(=O)n1-c1ccc(C(=O)N(C)C(=O)O[C@H](OC(=O)[C@@H](N)C(C)C)C(C)C)cc1)C[C@@H](C)N(C(=O)c1ccc(Br)c(C(F)(F)F)c1)C2 (relative stereo) [Compound 10, (*S)-1-(((4-((R)-7-(4-bromo-3-(trifluoromethyl)benzoyl)-2-(((S)-but-3-en-2-yl)amino)-6-methyl-4-oxo-5,6,7,8-tetrahydropyrido[3,4-d]pyrimidin-3(4H)-yl)benzoyl)(methyl)carbamoyl)oxy)-2-methylpropyl L-valinate hydrochloride]	–	–	≤ 0.05 µM	> 50 µM
